Counter-ions that a name gives are not always drawn.
Key:
plasma binding proteins = details: background statement on SSRIs; cited from earlier work
in vitro = details: human
UGT1A1 = target: T1, UGT1A1 (Homo sapiens, UniProt P22309); test: UGT inhibition assay, UGT1A1; assay type: in vitro ADME
T1 sequence (P22309 26-533): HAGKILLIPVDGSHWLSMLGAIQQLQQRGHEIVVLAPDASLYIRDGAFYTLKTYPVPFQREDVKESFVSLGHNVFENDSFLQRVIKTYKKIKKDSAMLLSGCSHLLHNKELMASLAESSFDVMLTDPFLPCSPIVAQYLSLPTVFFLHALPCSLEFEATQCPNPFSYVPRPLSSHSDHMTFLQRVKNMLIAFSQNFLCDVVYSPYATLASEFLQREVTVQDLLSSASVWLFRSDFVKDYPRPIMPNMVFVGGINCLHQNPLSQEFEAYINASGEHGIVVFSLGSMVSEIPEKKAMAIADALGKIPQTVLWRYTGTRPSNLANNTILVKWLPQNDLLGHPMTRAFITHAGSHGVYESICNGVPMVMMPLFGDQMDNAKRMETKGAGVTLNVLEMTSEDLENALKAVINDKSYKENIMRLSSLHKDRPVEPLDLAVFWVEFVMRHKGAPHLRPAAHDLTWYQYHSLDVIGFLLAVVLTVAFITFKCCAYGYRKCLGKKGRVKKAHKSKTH
Excerpt: 2R,6R-hydroxynorketamine was therefore investigated for its potential to inhibit this isozyme, along with that of the major UGT isozyme, UGT1A1, using a UGT inhibition assay.

UGT2B7 = UGT2B7 (Homo sapiens, UniProt P16662); test: UGT inhibition assay, UGT2B7; assay type: in vitro ADME
UGT2B7, sequence (P16662 24-529): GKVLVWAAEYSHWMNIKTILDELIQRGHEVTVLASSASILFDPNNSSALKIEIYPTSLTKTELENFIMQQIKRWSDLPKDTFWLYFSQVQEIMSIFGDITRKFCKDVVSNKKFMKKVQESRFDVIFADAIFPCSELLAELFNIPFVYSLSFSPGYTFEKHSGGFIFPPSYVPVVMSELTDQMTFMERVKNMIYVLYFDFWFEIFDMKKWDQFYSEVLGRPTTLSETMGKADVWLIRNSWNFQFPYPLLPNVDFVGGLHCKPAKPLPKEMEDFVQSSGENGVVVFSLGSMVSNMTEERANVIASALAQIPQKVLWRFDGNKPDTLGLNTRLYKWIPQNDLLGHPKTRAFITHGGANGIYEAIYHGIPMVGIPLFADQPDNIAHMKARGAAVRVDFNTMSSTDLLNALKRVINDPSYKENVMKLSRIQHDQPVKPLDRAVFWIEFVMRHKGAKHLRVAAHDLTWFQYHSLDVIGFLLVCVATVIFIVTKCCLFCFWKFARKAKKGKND

CNCCC(Oc1ccc(C(F)(F)F)cc1)c1ccccc1 (centres unmarked) [fluoxetine]
protein bound (plasma binding proteins): 94%

CC(C)NCC(O)COc1cccc2ccccc12 (centres unmarked) [propranolol, reference compound]
recovery (in vitro; Caco-2, Direction = A2B Mean % Recovery, Caco-2, A2B): 71.1% | Papp A→B (in vitro; Caco-2, Direction = A2B Mean Papp, Caco-2, A2B, mean, n 2): 26.7 ×10⁻⁶ cm/s | Papp A→B (in vitro; Caco-2, Direction = A2B Papp Replicate 1, Caco-2, A2B, replicate 1): 26 ×10⁻⁶ cm/s | Papp A→B (in vitro; Caco-2, Direction = A2B Papp Replicate 2, Caco-2, A2B, replicate 2): 27.4 ×10⁻⁶ cm/s | recovery (in vitro; Caco-2, Direction = B2A Mean % Recovery, Caco-2, B2A): 82.8% | Papp B→A (in vitro; Caco-2, Direction = B2A Papp Replicate 2, Caco-2, B2A, replicate 2): 26.2 ×10⁻⁶ cm/s

N[C@@]1(c2ccccc2Cl)CCC[C@@H](O)C1=O [2R-6R-Hydroxynorketamine Hydrochloride, 2R,6R-hydroxynorketamine hydrochloride]
IC50 (UGT1A1): > 100 µM | IC50 (UGT2B7): > 100 µM

Fc1ccc([C@@H]2CCNC[C@H]2COc2ccc3c(c2)OCO3)cc1 [paroxetine]
protein bound (plasma binding proteins): 95%

COC(=O)N[C@H](C(=O)N[C@@H](Cc1ccccc1)[C@@H](O)CN(Cc1ccc(-c2ccccn2)cc1)NC(=O)[C@@H](NC(=O)OC)C(C)(C)C)C(C)(C)C [Atazanavir]
IC50 (UGT1A1): 0.153 µM
